Experimental findings from patent publication US11427567B2, “Imidazolyl pyrimidinylamine compounds as CDK2 inhibitors” (Incyte Corporation, priority 2019, dated 2022) are described below.

The target of the experiment is CDK2/Cyclin E1 (Homo sapiens (Human), UniProt P24941). Kind of experiment: CDK2/Cyclin E1 HTRF enzyme activity assay (Example A). In kind it is biochemical. As to conditions: 1 mM ATP. The method, then:
Assays were conducted in white 384-well polystyrene plates in a final reaction volume of 8 μL. […] HTRF signals were read after 1 hour at room temperature on a PHERAstar FS plate reader (BMG Labtech). Data was analyzed with IDBS XLFit and GraphPad Prism 5.0 software using a three or four parameter dose response curve to determine IC50 for each compound.

As for `CNC(C)c1ccc(-n2cnc(-c3nc(NC4CCN(S(C)(=O)=O)CC4)ncc3C(F)(F)F)c2)c(Cl)c1` (single isomer, unassigned) [Example 275, 4-(1-(2-Chloro-4-(1-(methylamino)ethyl)phenyl)-1H-imidazol-4-yl)-N-(1-(methylsulfonyl)piperidin-4-yl)-5-(trifluoromethyl)pyrimidin-2-amine], the IC50 – broadly, the point on the concentration scale where inhibition reaches its midpoint – is ≤ 50 nM.

For `CNC(C)c1ccc(-n2cnc(-c3nc(NC4CCN(S(C)(=O)=O)CC4)ncc3C(F)(F)F)c2)c(Cl)c1` (single isomer, unassigned) [Example 276, 4-(1-(2-Chloro-4-(1-(methylamino)ethyl)phenyl)-1H-imidazol-4-yl)-N-(1-(methylsulfonyl)piperidin-4-yl)-5-(trifluoromethyl)pyrimidin-2-amine], the IC50 was ≤ 50 nM.

Turning to `C[C@@H]1CN(S(C)(=O)=O)CC[C@@H]1Nc1ncc(C(F)(F)F)c(-c2cn(-c3ccc(C4CCCCN4)cc3Cl)cn2)n1` (single isomer, unassigned) [Example 277], the IC50 was ≤ 50 nM.

On to `C[C@@H]1CN(S(C)(=O)=O)CC[C@@H]1Nc1ncc(C(F)(F)F)c(-c2cn(-c3ccc(C4CCCCN4)cc3Cl)cn2)n1` (single isomer, unassigned) [Example 278], for which the IC50 is ≤ 50 nM.

Regarding `CS(=O)(=O)N1CCC(Nc2ncc(C(F)(F)F)c(-c3cn(-c4ccc(C#N)cc4Cl)cn3)n2)CC1` [Example 1, 3-Chloro-4-(4-(2-((1-(methylsulfonyl)piperidin-4-yl)amino)-5-(trifluoromethyl)pyrimidin-4-yl)-1H-imidazol-1-yl)benzonitrile], the IC50 was ≤ 50 nM.

With `CS(=O)(=O)N1CCC(Nc2ncc(C(F)(F)F)c(-c3cn(-c4c(Cl)cccc4C#N)cn3)n2)CC1` [Example 2, 3-Chloro-2-(4-(2-((1-(methylsulfonyl)piperidin-4-yl)amino)-5-(trifluoromethyl)pyrimidin-4-yl)-1H-imidazol-1-yl)benzonitrile], the IC50 was ≤ 50 nM.

Turning to `CNCc1ccc(-n2cnc(-c3nc(NC4CCN(S(C)(=O)=O)CC4)ncc3C(F)(F)F)c2)c(Cl)c1` [Example 3, 4-(1-(2-Chloro-4-((methylamino)methyl)phenyl)-1H-imidazol-4-yl)-N-(1-(methylsulfonyl)piperidin-4-yl)-5-(trifluoromethyl)pyrimidin-2-amine], the IC50 is ≤ 50 nM.

As for `Cn1cnc(S(=O)(=O)N2CCC(Nc3ncc(C(F)(F)F)c(-c4cn(-c5ccc(C#N)cc5Cl)cn4)n3)CC2)c1` [Example 4, 3-Chloro-4-(4-(2-((1-((1-methyl-1H-imidazol-4-yl)sulfonyl)piperidin-4-yl)amino)-5-(trifluoromethyl)pyrimidin-4-yl)-1H-imidazol-1-yl)benzonitrile], the IC50 is ≤ 50 nM.

`Cn1cnc(S(=O)(=O)N2CCC(Nc3ncc(C(F)(F)F)c(-c4cn(-c5c(Cl)cccc5C#N)cn4)n3)CC2)c1` [Example 5, 3-Chloro-2-(4-(2-((1-((1-methyl-1H-imidazol-4-yl)sulfonyl)piperidin-4-yl)amino)-5-(trifluoromethyl)pyrimidin-4-yl)-1H-imidazol-1-yl)benzonitrile]: the IC50 was ≤ 50 nM.

`Cn1cnc(S(=O)(=O)N2CCC(Nc3ncc(C(F)(F)F)c(-c4cn(-c5cc(N)ncc5F)cn4)n3)CC2)c1` [Example 6, 4-(1-(2-Amino-5-fluoropyridin-4-yl)-1H-imidazol-4-yl)-N-(1-((1-methyl-1H-imidazol-4-yl)sulfonyl)piperidin-4-yl)-5-(trifluoromethyl)pyrimidin-2-amine]: the IC50 was ≤ 50 nM.

As for `Cc1c(-n2cnc(-c3nc(NC4CCN(S(=O)(=O)c5cn(C)cn5)CC4)ncc3C(F)(F)F)c2)ccnc1C#N` [Example 7, 3-Methyl-4-(4-(2-((1-((1-methyl-1H-imidazol-4-yl)sulfonyl)piperidin-4-yl)amino)-5-(trifluoromethyl)pyrimidin-4-yl)-1H-imidazol-1-yl)picolinonitrile], the IC50 was ≤ 50 nM.

With `CC(=O)Nc1nccc(-n2cnc(-c3nc(NC4CCN(S(=O)(=O)c5cn(C)cn5)CC4)ncc3C(F)(F)F)c2)c1C` [Example 8, N-(3-Methyl-4-(4-(2-((1-((1-methyl-1H-imidazol-4-yl)sulfonyl)piperidin-4-yl)amino)-5-(trifluoromethyl)pyrimidin-4-yl)-1H-imidazol-1-yl)pyridin-2-yl)acetamide], the IC50 is ≤ 50 nM.

Consider `Cc1c(-n2cnc(-c3nc(NC4CCN(S(=O)(=O)c5cn(C)cn5)CC4)ncc3C(F)(F)F)c2)ccnc1N` [Example 9, 4-(1-(2-Amino-3-methylpyridin-4-yl)-1H-imidazol-4-yl)-N-(1-((1-methyl-1H-imidazol-4-yl)sulfonyl)piperidin-4-yl)-5-(trifluoromethyl)pyrimidin-2-amine], for which the IC50 is ≤ 50 nM.

On to `Cn1cnc(-c2nc(NC3CCN(S(=O)(=O)c4cn(C)cn4)CC3)ncc2C(F)(F)F)c1` [Example 10, 4-(1-Methyl-1H-imidazol-4-yl)-N-(1-((1-methyl-1H-imidazol-4-yl)sulfonyl)piperidin-4-yl)-5-(trifluoromethyl)pyrimidin-2-amine], for which the IC50 is ≤ 50 nM.

Turning to `Cn1cnc(-c2nc(NC3CCN(S(C)(=O)=O)CC3)ncc2C(F)(F)F)c1` [Example 11, 4-(1-Methyl-1H-imidazol-4-yl)-N-(1-(methylsulfonyl)piperidin-4-yl)-5-(trifluoromethyl)pyrimidin-2-amine], the IC50 is ≤ 50 nM.

For the compound `Cn1c(Cl)nc(-c2nc(NC3CCN(S(C)(=O)=O)CC3)ncc2C(F)(F)F)c1Cl` [Example 12, 4-(2,5-Dichloro-1-methyl-1H-imidazol-4-yl)-N-(1-(methylsulfonyl)piperidin-4-yl)-5-(trifluoromethyl)pyrimidin-2-amine], the IC50 is ≤ 50 nM.

Take `Cn1cnc(-c2nc(NC3CCN(S(C)(=O)=O)CC3)ncc2C(F)(F)F)c1Br` [Example 13, 4-(5-Bromo-1-methyl-1H-imidazol-4-yl)-N-(1-(methylsulfonyl)piperidin-4-yl)-5-(trifluoromethyl)pyrimidin-2-amine]: the IC50 was ≤ 50 nM.

For `Cn1cnc(-c2nc(NC3CCN(S(C)(=O)=O)CC3)ncc2C(F)(F)F)c1Cl` [Example 14, 4-(5-Chloro-1-methyl-1H-imidazol-4-yl)-N-(1-(methylsulfonyl)piperidin-4-yl)-5-(trifluoromethyl)pyrimidin-2-amine], the IC50 was ≤ 50 nM.

`Cc1c(-c2nc(NC3CCN(S(C)(=O)=O)CC3)ncc2C(F)(F)F)ncn1C` [Example 15, 4-(1,5-Dimethyl-1H-imidazol-4-yl)-N-(1-(methylsulfonyl)piperidin-4-yl)-5-(trifluoromethyl)pyrimidin-2-amine] showed an IC50 of 50 to 200 nM.

In the case of `Cn1cnc(-c2nc(NC3CCN(S(C)(=O)=O)CC3)ncc2C(F)(F)F)c1C#N` [Example 16, 1-Methyl-4-(2-((1-(methylsulfonyl)piperidin-4-yl)amino)-5-(trifluoromethyl)pyrimidin-4-yl)-1H-imidazole-5-carbonitrile], the IC50 was ≤ 50 nM.

Take `Cn1cc(-c2nc(NC3CCN(S(C)(=O)=O)CC3)ncc2C(F)(F)F)nc1CO` [Example 17, (1-Methyl-4-(2-((1-(methylsulfonyl)piperidin-4-yl)amino)-5-(trifluoromethyl)pyrimidin-4-yl)-1H-imidazol-2-yl)methanol]: the IC50 was ≤ 50 nM.

As to `Cn1cc(-c2nc(NC3CCN(S(C)(=O)=O)CC3)ncc2C(F)(F)F)nc1CC(C)(C)O` [Example 18, 2-Methyl-1-(1-methyl-4-(2-((1-(methylsulfonyl)piperidin-4-yl)amino)-5-(trifluoromethyl)pyrimidin-4-yl)-1H-imidazol-2-yl)propan-2-ol], the IC50 was ≤ 50 nM.

Consider `Cc1nc(-c2nc(NC3CCN(S(C)(=O)=O)CC3)ncc2C(F)(F)F)cn1C` [Example 19, 4-(1,2-Dimethyl-1H-imidazol-4-yl)-N-(1-(methylsulfonyl)piperidin-4-yl)-5-(trifluoromethyl)pyrimidin-2-amine], for which the IC50 was 50 to 200 nM.

Regarding `Cn1cnc(S(=O)(=O)N2CCC(Nc3ncc(C(F)(F)F)c(-c4ncn(C)c4Cl)n3)CC2)c1` [Example 20, 4-(5-Chloro-1-methyl-1H-imidazol-4-yl)-N-(1-((1-methyl-1H-imidazol-4-yl)sulfonyl)piperidin-4-yl)-5-(trifluoromethyl)pyrimidin-2-amine], the IC50 was ≤ 50 nM.

For the compound `CS(=O)(=O)N1CCC(Nc2ncc(C(F)(F)F)c(-c3cn(CC(F)F)cn3)n2)CC1` [Example 21, 4-(1-(2,2-Difluoroethyl)-1H-imidazol-4-yl)-N-(1-(methylsulfonyl)piperidin-4-yl)-5-(trifluoromethyl)pyrimidin-2-amine], the IC50 is ≤ 50 nM.

As to `CC(C)(O)Cn1cnc(-c2nc(NC3CCN(S(C)(=O)=O)CC3)ncc2C(F)(F)F)c1` [Example 22, 2-Methyl-1-(4-(2-((1-(methylsulfonyl)piperidin-4-yl)amino)-5-(trifluoromethyl)pyrimidin-4-yl)-1H-imidazol-1-yl)propan-2-ol], the IC50 was ≤ 50 nM.

In the case of `CS(=O)(=O)N1CCC(Nc2ncc(C(F)(F)F)c(-c3cn(CC(F)(F)F)cn3)n2)CC1` [Example 23, N-(1-(Methylsulfonyl)piperidin-4-yl)-4-(1-(2,2,2-trifluoroethyl)-1H-imidazol-4-yl)-5-(trifluoromethyl)pyrimidin-2-amine], the IC50 is ≤ 50 nM.

Turning to `CS(=O)(=O)N1CCC(Nc2ncc(C(F)(F)F)c(-c3cn(C4CCOCC4)cn3)n2)CC1` [Example 24, N-(1-(Methylsulfonyl)piperidin-4-yl)-4-(1-(tetrahydro-2H-pyran-4-yl)-1H-imidazol-4-yl)-5-(trifluoromethyl)pyrimidin-2-amine], the IC50 was ≤ 50 nM.

Consider `CS(=O)(=O)N1CCC(Nc2ncc(C(F)(F)F)c(-c3cn(C(CC#N)C4CC4)cn3)n2)CC1` (centres unmarked) [Example 25, 3-Cyclopropyl-3-(4-(2-((1-(methylsulfonyl)piperidin-4-yl)amino)-5-(trifluoromethyl)pyrimidin-4-yl)-1H-imidazol-1-yl)propanenitrile], for which the IC50 is ≤ 50 nM.
